According to the Kinase Knowledgebase extract (Sharma et al. 2016):

Key:
PIK3CA = PIK3CA (UniProt P42336); assay: PI 3-Kinase Inhibition; details: for inhibition: concentration not given here
PIK3CA (rat) = assay: Hexosaminidase Secretion Inhibition (RBL-2H3 cells); details: rbl2h3

PIK3CA, sequence (P42336 whole entry, looked up): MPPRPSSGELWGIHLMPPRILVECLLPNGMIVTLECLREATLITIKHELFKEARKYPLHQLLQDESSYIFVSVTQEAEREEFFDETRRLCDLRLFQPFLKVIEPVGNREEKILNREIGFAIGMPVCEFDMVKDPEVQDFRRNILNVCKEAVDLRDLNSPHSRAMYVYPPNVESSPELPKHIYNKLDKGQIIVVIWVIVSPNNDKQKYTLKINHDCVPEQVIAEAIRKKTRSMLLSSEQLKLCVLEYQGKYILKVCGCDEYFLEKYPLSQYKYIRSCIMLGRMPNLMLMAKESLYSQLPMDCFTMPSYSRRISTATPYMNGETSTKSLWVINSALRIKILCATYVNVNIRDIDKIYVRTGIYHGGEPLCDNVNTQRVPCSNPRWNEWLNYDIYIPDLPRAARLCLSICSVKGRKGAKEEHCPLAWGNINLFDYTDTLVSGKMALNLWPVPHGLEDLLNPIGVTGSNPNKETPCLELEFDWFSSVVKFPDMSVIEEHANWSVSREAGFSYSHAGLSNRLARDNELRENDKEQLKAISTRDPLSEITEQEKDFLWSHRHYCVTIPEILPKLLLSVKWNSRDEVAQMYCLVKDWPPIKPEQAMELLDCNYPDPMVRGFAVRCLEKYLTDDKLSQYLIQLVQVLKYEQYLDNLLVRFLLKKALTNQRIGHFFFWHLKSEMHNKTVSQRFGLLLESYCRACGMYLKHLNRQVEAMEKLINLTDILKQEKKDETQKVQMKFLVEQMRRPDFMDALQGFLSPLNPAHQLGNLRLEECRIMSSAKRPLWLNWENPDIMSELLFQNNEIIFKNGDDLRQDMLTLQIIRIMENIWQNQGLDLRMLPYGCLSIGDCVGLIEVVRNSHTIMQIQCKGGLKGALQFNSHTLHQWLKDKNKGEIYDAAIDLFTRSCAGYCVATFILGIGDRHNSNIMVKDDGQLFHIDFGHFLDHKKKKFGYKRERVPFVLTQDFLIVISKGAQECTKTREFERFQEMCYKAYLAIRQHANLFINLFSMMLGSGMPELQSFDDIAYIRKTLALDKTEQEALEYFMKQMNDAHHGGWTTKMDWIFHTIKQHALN

## CCCCCCCCCCCCCCCC(=O)OC[C@@H](COP(=O)(O)O[C@H]1[C@H](O)[C@@H](O)[C@H](O)[C@@H](CF)[C@H]1O)OC(=O)CCCCCCCCCCCCCCC
PIK3CA
  inhibition: 60%

## CCCCCCCCCCCCCCCC(=O)OC[C@@H](COP(=O)(O)O[C@H]1[C@H](O)[C@@H](O)[C@H](O)[C@@H](CO)[C@H]1O)OC(=O)CCCCCCCCCCCCCCC
PIK3CA
  IC50: 35 µM
  inhibition: 85%

## CCCCCCCCCCCCCCCC(=O)OC[C@@H](COP(=O)(O)O[C@H]1[C@H](O)[C@@H](O)[C@H](O)[C@@H](CCl)[C@H]1O)OC(=O)CCCCCCCCCCCCCCC
PIK3CA
  inhibition: 60%

## O=c1cc(N2CCOCC2)oc2c(-c3ccccc3)cccc12
PIK3CA (rat)
  IC50: 1.8 µM

## CCCCCCCCCCCCCCCC(=O)OC[C@@H](COP(=O)(O)O[C@H]1[C@H](O)[C@@H](O)[C@H](O)[C@@H](CBr)[C@H]1O)OC(=O)CCCCCCCCCCCCCCC
PIK3CA
  inhibition: 60%

## CCCCCCCCCCCCCCCC(=O)OC[C@@H](COP(=O)(O)O[C@H]1[C@H](O)[C@@H](O)[C@H](O)[C@@H](CI)[C@H]1O)OC(=O)CCCCCCCCCCCCCCC
PIK3CA
  inhibition: 60%

## CCCCCCCCCCCCCCCC(=O)OC[C@@H](COP(=O)(O)O[C@H]1[C@H](O)[C@@H](O)[C@H](O)[C@@H](CN)[C@H]1O)OC(=O)CCCCCCCCCCCCCCC
PIK3CA (rat)
  IC50: 17 µM
PIK3CA
  IC50: 20 µM
  inhibition: > 98%
